Measurements taken from the NIST ThermoML archive (doi:10.1021/je900596d).

Settings: Vibrating tube method

FC(F)=C(F)C(F)(F)F [hexafluoropropene]
Settings | mass density [kg/m3]
303.28 K, 499 kPa, Fluid (supercritical or subcritical phases) | 33.24
303.28 K, 504.3 kPa, Fluid (supercritical or subcritical phases) | 33.56
303.28 K, 509.6 kPa, Fluid (supercritical or subcritical phases) | 33.97
303.28 K, 514.9 kPa, Fluid (supercritical or subcritical phases) | 34.46
303.28 K, 525.4 kPa, Fluid (supercritical or subcritical phases) | 35.23
303.28 K, 530.6 kPa, Fluid (supercritical or subcritical phases) | 35.69
303.28 K, 535.9 kPa, Fluid (supercritical or subcritical phases) | 36.01
303.28 K, 541.1 kPa, Fluid (supercritical or subcritical phases) | 36.49
303.28 K, 546.3 kPa, Fluid (supercritical or subcritical phases) | 36.92
303.28 K, 551.5 kPa, Fluid (supercritical or subcritical phases) | 37.29
303.28 K, 556.7 kPa, Fluid (supercritical or subcritical phases) | 37.7
303.28 K, 572.3 kPa, Fluid (supercritical or subcritical phases) | 38.97
303.28 K, 577.4 kPa, Fluid (supercritical or subcritical phases) | 39.31
303.28 K, 582.5 kPa, Fluid (supercritical or subcritical phases) | 39.71
303.28 K, 587.5 kPa, Fluid (supercritical or subcritical phases) | 40.14
303.28 K, 597.7 kPa, Fluid (supercritical or subcritical phases) | 41.02
303.28 K, 605.4 kPa, Fluid (supercritical or subcritical phases) | 41.64
303.28 K, 610.5 kPa, Fluid (supercritical or subcritical phases) | 42.03
303.28 K, 615.6 kPa, Fluid (supercritical or subcritical phases) | 42.45
303.28 K, 625.6 kPa, Fluid (supercritical or subcritical phases) | 43.25
303.28 K, 630.6 kPa, Fluid (supercritical or subcritical phases) | 43.67
303.28 K, 635.6 kPa, Fluid (supercritical or subcritical phases) | 44.16
303.28 K, 640.7 kPa, Fluid (supercritical or subcritical phases) | 44.51
303.28 K, 650.7 kPa, Fluid (supercritical or subcritical phases) | 45.35
303.28 K, 655.6 kPa, Fluid (supercritical or subcritical phases) | 45.82
303.28 K, 660.6 kPa, Fluid (supercritical or subcritical phases) | 46.19
303.28 K, 665.5 kPa, Fluid (supercritical or subcritical phases) | 46.57
303.28 K, 670.5 kPa, Fluid (supercritical or subcritical phases) | 47.07
303.28 K, 675.4 kPa, Fluid (supercritical or subcritical phases) | 47.49
303.28 K, 680.3 kPa, Fluid (supercritical or subcritical phases) | 47.87
303.28 K, 685.2 kPa, Fluid (supercritical or subcritical phases) | 48.24
303.28 K, 690 kPa, Fluid (supercritical or subcritical phases) | 48.67
303.28 K, 694.8 kPa, Fluid (supercritical or subcritical phases) | 49.19
303.28 K, 709.3 kPa, Fluid (supercritical or subcritical phases) | 50.39
303.28 K, 714.1 kPa, Fluid (supercritical or subcritical phases) | 50.86
303.28 K, 718.9 kPa, Fluid (supercritical or subcritical phases) | 51.33
303.28 K, 723.7 kPa, Fluid (supercritical or subcritical phases) | 51.66
303.28 K, 728.6 kPa, Fluid (supercritical or subcritical phases) | 52.22
303.28 K, 734.4 kPa, Fluid (supercritical or subcritical phases) | 52.63
303.28 K, 746.1 kPa, Fluid (supercritical or subcritical phases) | 53.68
303.28 K, 750.9 kPa, Fluid (supercritical or subcritical phases) | 54.09
303.28 K, 756.7 kPa, Fluid (supercritical or subcritical phases) | 54.65
303.28 K, 768.4 kPa, Fluid (supercritical or subcritical phases) | 55.74
303.28 K, 774.1 kPa, Fluid (supercritical or subcritical phases) | 56.3
303.28 K, 779.9 kPa, Fluid (supercritical or subcritical phases) | 56.84
303.28 K, 785.6 kPa, Fluid (supercritical or subcritical phases) | 57.36
303.28 K, 791.2 kPa, Fluid (supercritical or subcritical phases) | 57.85
303.28 K, 796.9 kPa, Fluid (supercritical or subcritical phases) | 58.41
303.28 K, 802.6 kPa, Fluid (supercritical or subcritical phases) | 58.95
303.28 K, 808.2 kPa, Fluid (supercritical or subcritical phases) | 59.58
303.28 K, 813.9 kPa, Fluid (supercritical or subcritical phases) | 60.04
303.28 K, 823.6 kPa, Fluid (supercritical or subcritical phases) | 61.02
303.28 K, 828.8 kPa, Fluid (supercritical or subcritical phases) | 61.46
303.28 K, 838 kPa, Fluid (supercritical or subcritical phases) | 62.51
303.28 K, 841.4 kPa, Fluid (supercritical or subcritical phases) | 62.82
303.28 K, 842 kPa, Fluid (supercritical or subcritical phases) | 62.87
303.28 K, 842.4 kPa, Fluid (supercritical or subcritical phases) | 62.98
303.28 K, 843.8 kPa, Fluid (supercritical or subcritical phases) | 63.1
303.28 K, 844.7 kPa, Fluid (supercritical or subcritical phases) | 63.37
303.28 K, 845.6 kPa, Fluid (supercritical or subcritical phases) | 63.62
303.28 K, 846.3 kPa, Fluid (supercritical or subcritical phases) | 63.97
303.28 K, 846.8 kPa, Fluid (supercritical or subcritical phases) | 64.22
303.28 K, 847.7 kPa, Fluid (supercritical or subcritical phases) | 64.87
303.28 K, 848.2 kPa, Fluid (supercritical or subcritical phases) | 65.17
303.36 K, 851.7 kPa, Liquid | 1288.08
303.36 K, 854.5 kPa, Liquid | 1288.17
303.36 K, 856.9 kPa, Liquid | 1288.04
303.36 K, 858.9 kPa, Liquid | 1288.19
303.36 K, 870 kPa, Liquid | 1288.22
303.36 K, 873.5 kPa, Liquid | 1288.36
303.36 K, 880.9 kPa, Liquid | 1288.43
303.36 K, 885.8 kPa, Liquid | 1288.43
303.36 K, 887.7 kPa, Liquid | 1288.47
303.36 K, 903 kPa, Liquid | 1288.59
303.36 K, 908.2 kPa, Liquid | 1288.61
303.36 K, 911.2 kPa, Liquid | 1288.78
303.36 K, 918.3 kPa, Liquid | 1288.76
303.36 K, 927 kPa, Liquid | 1288.93
303.36 K, 935.5 kPa, Liquid | 1288.99
303.36 K, 940.8 kPa, Liquid | 1288.91
303.36 K, 943.4 kPa, Liquid | 1289.1
303.36 K, 946.1 kPa, Liquid | 1289.23
303.36 K, 954.6 kPa, Liquid | 1289.18
303.36 K, 959.8 kPa, Liquid | 1289.24
303.36 K, 965.5 kPa, Liquid | 1289.39
303.36 K, 974 kPa, Liquid | 1289.46
303.36 K, 983.2 kPa, Liquid | 1289.54
303.36 K, 988.8 kPa, Liquid | 1289.67
303.36 K, 995.6 kPa, Liquid | 1289.74
303.36 K, 1001.4 kPa, Liquid | 1289.81
303.36 K, 1006.1 kPa, Liquid | 1289.98
303.36 K, 1016.7 kPa, Liquid | 1289.99
303.36 K, 1021.3 kPa, Liquid | 1290
303.36 K, 1025.8 kPa, Liquid | 1290.01
303.36 K, 1030.5 kPa, Liquid | 1290.08
303.36 K, 1045.7 kPa, Liquid | 1290.29
303.36 K, 1063.4 kPa, Liquid | 1290.5
303.36 K, 1068.6 kPa, Liquid | 1290.58
303.36 K, 1082.5 kPa, Liquid | 1290.71
303.36 K, 1095.4 kPa, Liquid | 1290.76
303.36 K, 1106.3 kPa, Liquid | 1291.06
303.36 K, 1118.1 kPa, Liquid | 1291.22
303.36 K, 1152.1 kPa, Liquid | 1291.56
303.36 K, 1163 kPa, Liquid | 1291.61
303.36 K, 1174.7 kPa, Liquid | 1291.89
303.36 K, 1188.2 kPa, Liquid | 1292.04
303.36 K, 1203.3 kPa, Liquid | 1292.26
303.36 K, 1216 kPa, Liquid | 1292.23
303.36 K, 1235 kPa, Liquid | 1292.43
303.36 K, 1249 kPa, Liquid | 1292.78
303.36 K, 1261.3 kPa, Liquid | 1292.76
303.36 K, 1289 kPa, Liquid | 1293.23
303.36 K, 1305.6 kPa, Liquid | 1293.27
303.36 K, 1340.2 kPa, Liquid | 1293.72
303.36 K, 1361.8 kPa, Liquid | 1293.94
303.36 K, 1383.4 kPa, Liquid | 1294.19
303.36 K, 1404.6 kPa, Liquid | 1294.41
303.36 K, 1448.9 kPa, Liquid | 1294.92
303.36 K, 1483.7 kPa, Liquid | 1295.38
303.36 K, 1495.8 kPa, Liquid | 1295.69
303.36 K, 1517.4 kPa, Liquid | 1295.82
303.36 K, 1540.3 kPa, Liquid | 1296.17
303.36 K, 1561.5 kPa, Liquid | 1296.23
303.36 K, 1582.1 kPa, Liquid | 1296.56
303.36 K, 1615.7 kPa, Liquid | 1296.92
303.36 K, 1637.2 kPa, Liquid | 1297.09
303.36 K, 1659.1 kPa, Liquid | 1297.43
303.36 K, 1680.6 kPa, Liquid | 1297.48
303.36 K, 1726.5 kPa, Liquid | 1298.26
303.36 K, 1771 kPa, Liquid | 1298.55
303.36 K, 1793.6 kPa, Liquid | 1298.76
303.36 K, 1815.1 kPa, Liquid | 1299.1
303.36 K, 1837.5 kPa, Liquid | 1299.36
303.36 K, 1861.7 kPa, Liquid | 1299.58
